US20090298887A1, “METHOD FOR IMPROVING HARVESTED SEED QUALITY” (Syngenta Corp Protection, Inc., priority 2004, published 2009)

Tests used:
soybean plants [1] = experiment: Warm germination test of seeds harvested from treated soybean plants; assay type: in vivo
Excerpt: A preferred test of seed germination is a warm germination test because it is used for labeling purposes. Germination is defined as: “the emergence and development from the seed embryo of those essential structures which are indicative of the ability to produce a normal plant under favorable conditions.” The warm germination test reflects the stand producing potential of a seed lot under ideal planting conditions. In a typical warm germination test, 400 seeds from each seed lot are placed under moist conditions on blotters, rolled towels, or sand and maintained at 77° F. for about seven days. At the end of this period the seedlings are categorized as normal, abnormal, or diseased, and dead or hard seeds. The percentage germination is calculated from the number of normal seedlings from the total number of seeds evaluated.
(§1) In the method of the present invention, seeds harvested from plants treated with a foliar insecticide, or seeds harvested from plants whose pre-planted seeds were treated with a seed treatment insecticide, or seeds harvested from plants that underwent both treatments, both as the pre-planted seed (seed treatment) and as the post emergent plant (foliar insecticide treatment) were tested in warm germination and accelerated aging tests to determine the health and quality of the harvested seeds. In accordance with the germination tests, it was discovered that seed-producing plants resulting from the growers' application of insecticides at the seed stage, the foliar stage, and both, not only were healthier plants, but they also produced healthier seeds.
(§2) Germination studies were conducted on soybean plants comparing plants treated with a combination of fungicides with plants (1) wherein only insecticidal seed treatment was applied; (2) wherein insecticidal seed treatment was applied followed by foliar insecticidal treatment on the resulting plant; and (3) wherein only foliar insecticide was applied to a plant grown from untreated seed.

soybean plants [2] = experiment: Accelerated aging test of seeds harvested from treated soybean plants; assay type: in vivo
Description: Another germination test, the accelerated aging test (AA), estimates the carryover potential of a seed lot in warehouse storage. The seeds are exposed to high temperatures and high relative humidity for short periods of time that cause seed deterioration. Seeds are suspended over water in a chamber for a period of time, for example 72 hours (wheat and soybeans) or 96 hours (corn), then tested in a standard warm germination test. This test only is usually used on seed whose longevity was in question.
as §1, §2

[3] = foliar insecticide only (2 applications), untreated seed
[4] = insecticidal seed treatment only, 30 g
[5] = insecticidal seed treatment only, 50 g

Structure (SMILES) | Warm Germination (+/−Std. Error) (soybean plants [1]; [3]) | Warm Germination (+/−Std. Error) (soybean plants [1]; foliar insecticide only (8/8)) | Warm Germination (+/−Std. Error) (soybean plants [1]; foliar insecticide only (8/12)) | Accelerated Aging (+/−Std. Error) (soybean plants [2]; [3]) | Accelerated Aging (+/−Std. Error) (soybean plants [2]; foliar insecticide only (8/8)) | Accelerated Aging (+/−Std. Error) (soybean plants [2]; foliar insecticide only (8/12)) | Warm Germination (+/−Std. Error) (soybean plants [1]; [4]) | Warm Germination (+/−Std. Error) (soybean plants [1]; [5]) | Accelerated Aging (+/−Std. Error) (soybean plants [2]; [4]) | Accelerated Aging (+/−Std. Error) (soybean plants [2]; [5])
CC1(C)[C@H](C(=O)O[C@H](C#N)c2cccc(Oc3ccccc3)c2)[C@@H]1/C=C(\Cl)C(F)(F)F (racemic) [lambda cyhalothrin] | 92.5 (0.70) | 92.9 (0.81) | 91.1 (0.81) | 89.3 (1.06) | 89.7 (1.23) | 86.5 (1.23) | – | – | – | –
CN1COCN(Cc2cnc(Cl)s2)/C1=N\[N+](=O)[O-] [Thiamethoxam, thiamethoxam] | – | – | – | – | – | – | 91.4 (0.63) | 91.6 (0.65) | 86.7 (0.95) | 90.4 (0.98)
